Assay results reported in article PMC5218591 (Bioorganic & medicinal chemistry, 2016).

Molecular target: GPR88 (Homo sapiens, UniProt Q9GZN0)
Conditions: for fold less potent than 3: versus 3; for agonist activity at GPR88 (in words): purified compounds, Lance cAMP assay

GPR88, sequence (Q9GZN0 whole entry, species assumed): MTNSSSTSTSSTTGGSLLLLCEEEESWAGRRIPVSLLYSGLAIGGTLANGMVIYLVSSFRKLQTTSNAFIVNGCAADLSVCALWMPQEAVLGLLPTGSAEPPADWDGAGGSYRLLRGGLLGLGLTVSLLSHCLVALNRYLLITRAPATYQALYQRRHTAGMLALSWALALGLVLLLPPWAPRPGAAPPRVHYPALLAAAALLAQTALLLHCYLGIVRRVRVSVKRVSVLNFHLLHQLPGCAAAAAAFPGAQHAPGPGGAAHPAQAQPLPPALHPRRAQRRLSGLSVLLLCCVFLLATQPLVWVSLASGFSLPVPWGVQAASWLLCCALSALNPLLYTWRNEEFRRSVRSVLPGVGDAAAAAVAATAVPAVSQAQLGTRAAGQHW

**Q.** `CCCC(C)COc1ccc([C@@H](NC(=O)[C@@H](C)c2ccccc2)C(=O)OC)cc1` (stereo partly drawn) [Compound 11a, Methyl (2R)-2-[4-(2-methylpentyloxy)phenyl]-2-[(S)-2-phenylpropanamido]acetate] was tested. Which “fold less potent than 3” value did it give?
**A.** Its value is “approximately 2.5 fold”.

**Q.** How did the “agonist activity at GPR88 (in words)” value turn out when `CCCC(C)COc1ccc([C@@H](NC(=O)[C@@H](C)c2ccccc2)C(=O)O)cc1` (stereo partly drawn) [Compound 11b, (2R)-2-[4-(2-Methylpentyloxy)phenyl]-2-[(S)-2-phenylpropanamido]acetic acid] was run?
**A.** The value was “completely inactive”.

**Q.** With `CCCC(C)COc1ccc([C@H](CO)NC(=O)Cc2ccccc2)cc1` (stereo partly drawn) [Compound 12a, N-{(1R)-2-Hydroxy-1-[4-(2-methylpentyloxy)phenyl]ethyl}-2-phenylacetamide] as the molecule, how does the “fold less potent than 3” value read?
**A.** Its value is “approximately 2 fold”.

**Q.** Which “agonist activity at GPR88 (in words)” value does the source give for `CCCC(C)COc1ccc([C@@H](NC(=O)C(C)C2CCCCC2)C(=O)OC)cc1` (stereo partly drawn) [Compound 12d, Methyl (2R)-2-[4-(2-methylpentyloxy)phenyl]-2-[(R,S)-2-cyclohexylpropanamido]-acetate] here?
**A.** Its value is “completely inactive”.

**Q.** Which “fold less potent than 11a” value (versus 11a) does the source give for `CCCC(C)COc1ccc([C@@H](NC(=O)Cc2ccccc2)C(=O)OC)cc1` (stereo partly drawn) [Compound 13a, Methyl (2R)-2-[4-(2-methylpentyloxy)phenyl]-2-(2-phenylacetamido)acetate] here?
**A.** Its value is 5 fold.

**Q.** Which results are given for `CCCC(C)COc1ccc([C@@H](NC(=O)[C@@H](CC)c2ccccc2)C(=O)OC)cc1` (stereo partly drawn) [Compound 13aw, Methyl (2R)-2-[4-(2-methylpentyloxy)phenyl]-2-[(S)-2-phenylbutanamido]acetate]?
**A.** agonist activity at GPR88 (in words): equipotent with 11a; fold more potent than 13a (versus 13a): 4.5 fold

**Q.** `CCCC(C)COc1ccc([C@@H](NC(=O)[C@H](C)c2ccccc2)C(=O)OC)cc1` (some centres unmarked) [Compound 13az] was tested. Which “agonist activity as percentage of TR-FRET signal of the control compound 11a” value (library screen at 1 μM final, crude compounds, 11a = 100%, Figure 2) did it give?
**A.** Its value is “less potent than the (S)-isomer”.
